# Measurements as given in patent US20140303092A1 (CHIMERIX, INC., priority 2011, published 2014).
# Assay: Study HDP-CDV-201: safety and tolerability (adverse events, laboratory abnormalities, discontinuations)
# Type: in vivo, human (adult allogeneic HSCT recipients)
# Conditions: Cohort 4A
# Protocol: Clinical Studies of HDP-CDV were performed and described in detail in the following Examples. For example, HDP-CDV-201 is a placebo-controlled, dose-escalating trial in HSCT CMV (R+) recipients, evaluating the ability of HDP-CDV to prevent or control CMV infection was carried out. Five cohorts were established in which participants or subjects received either placebo or the HDP-CDV orally, in doses ranging from 40 mg weekly (QW) to 200 mg twice weekly (BIW). Subjects who were post-HSCT were enrolled at the time of engraftment and randomized to HDP-CDV or placebo (3 to 1 ratio) and received blinded therapy until approximately 100 day post-transplantation. HDP-CDV doses were 40 mg QW, 100 mg QW, 200 mg QW, 200 mg BIW and 100 mg BIW. Escalation to the next dose was decided by the data monitoring committee after review of the safety data from the previous Cohort. Subjects who developed CMV disease or CMV infection requiring pre-emptive therapy with local standard of care were discontinued from blinded therapy and followed for 4 weeks. Subjects who completed treatment with blinded therapy were followed for 8 weeks post-therapy.
# Data from Study HDP-CDV-201 also provided characterization of the safety and tolerability profile of HDP-CDV when administered for the prevention or control of CMV infection in high risk (R^+) post-HSCT adult subjects.
# The Safety population (SAFETY) included all randomized subjects who took at least one dose of study treatment. This population was used to summarize safety outcomes based on the treatment actually received, in cases where a subject was treated contrary to the randomization schedule.
# The safety and tolerability profile of HDP-CDV, including subject demographics and Baseline characteristics; the AE profile; and laboratory abnormalities of interest were analyzed in the cohorts followed in this investigation.
# Subjects completing the treatment period received a full course of study medication; those completing the entire study attended visits through 8 weeks of follow up. Subjects who discontinued treatment may have done so for protocol specified reasons (e.g. development of clinically significant CMV infection requiring preemptive treatment with excluded anti-CMV medications) or for other reasons (e.g., withdrawal, adverse events, loss to follow-up). The disposition of subjects in Study HDP-CDV-201 during the double-blind, placebo-controlled treatment period (through Week 11) is listed by dosing Cohort in TABLE 23.
# Adverse events were examined by severity to ensure that all safety signals were identified in this study population. Because of the frequency of events in HSCT recipients, particular attention was given to evaluation of Grade 3 […], 4 (severe), and 5 (fatal) adverse events.
# Only those preferred terms for which at least one Grade 3 or higher event was experienced in any treatment group are listed. Cytomegalovirus-related AEs are excluded from this analysis.
# HDP-CDV is a lipid conjugate of CDV. Because CDV is known to have adverse effects on renal function and bone marrow, decreased GFR and persistent neutropenia were identified as AEs of special interest. Key renal and hematological (TABLE 30) laboratory parameters were measured and listed below by Study HDP-CDV-201 treatment groups. TABLE 30 includes abnormal levels of serum creatinine, neutrophils, platelets, WBCs, and hemoglobin and includes data at Screening and during the treatment period.
# A common metric for unit based dosing of medications is by weight (mg/kg). When the distribution of weights was examined for all subjects participating in the study, the median was 78 kg and the lower 25th percentile weight was approximately 65 kg, which translates to a cut-off of ˜3 mg/kg for a 200 mg total weekly dose. Based upon this approach, a cut-off of 3 mg/kg was used to assess the frequency of diarrhea and associated GI AEs reported for the subjects in Cohorts 3 or 4a (TABLE 40).
compound,measurement,setting,value
CCCCCCCCCCCCCCCCOCCCOP(=O)(O)COC(CO)Cn1ccc(N)nc1=O (stereo not drawn) [HDP-CDV],"Intensity of Gastrointestinal AEs, Grade 1, subjects",100 mg BIW,12 (24.0%)
same,"Intensity of Gastrointestinal AEs, Grade 2, subjects",100 mg BIW,17 (34.0%)
same,"Intensity of Gastrointestinal AEs, Grade 3, subjects",100 mg BIW,10 (20.0%)
same,"Intensity of Gastrointestinal AEs, Grade 4, subjects",100 mg BIW,1 (2.0%)
same,"Intensity of Gastrointestinal AEs, Grade 5, subjects",100 mg BIW,0
same,"Serum ALT level, Median fold increase from Baseline at Follow-up Week 1",100 mg BIW,1.52 fold
same,"Serum ALT level, Median fold increase from Baseline at Follow-up Week 4",100 mg BIW,1.11 fold
same,"Serum ALT level, Peak Median fold increase from Baseline",100 mg BIW,2.86 fold
same,Subjects completed study,100 mg BIW,25 (50.0%) n (%)
same,"TEAE Abdominal pain Grade 2, subjects",100 mg BIW,1 (2.0%)
same,"TEAE Abdominal pain Grade 3, subjects",100 mg BIW,1 (2.0%)
same,"TEAE Abdominal pain Grade 4, subjects",100 mg BIW,0
same,"TEAE Abdominal pain Grade 5, subjects",100 mg BIW,0
same,"TEAE Abdominal pain Overall Frequency, subjects",100 mg BIW,13 (26.0%)
same,"TEAE Diarrhea Grade 2, subjects",100 mg BIW,6 (12.0%)
same,"TEAE Diarrhea Grade 3, subjects",100 mg BIW,9 (18.0%)
same,"TEAE Diarrhea Grade 4, subjects",100 mg BIW,0
same,"TEAE Diarrhea Grade 5, subjects",100 mg BIW,0
same,"TEAE Diarrhea Overall Frequency, subjects",100 mg BIW,26 (52.0%)
same,"TEAE Hypokalaemia Grade 2, subjects",100 mg BIW,2 (4.0%)
same,"TEAE Hypokalaemia Grade 3, subjects",100 mg BIW,2 (4.0%)
same,"TEAE Hypokalaemia Grade 4, subjects",100 mg BIW,0
same,"TEAE Hypokalaemia Grade 5, subjects",100 mg BIW,0
same,"TEAE Hypokalaemia, subjects",100 mg BIW,8 (16.0%)
same,"TEAE Nausea Grade 2, subjects",100 mg BIW,9 (18.0%)
same,"TEAE Nausea Grade 3, subjects",100 mg BIW,2 (4.0%)
same,"TEAE Nausea Grade 4, subjects",100 mg BIW,0
same,"TEAE Nausea Grade 5, subjects",100 mg BIW,0
same,"TEAE Nausea Overall Frequency, subjects",100 mg BIW,17 (34.0%)
same,"TEAE Vomiting Grade 2, subjects",100 mg BIW,8 (16.0%)
same,"TEAE Vomiting Grade 3, subjects",100 mg BIW,2 (4.0%)
same,"TEAE Vomiting Grade 4, subjects",100 mg BIW,0
same,"TEAE Vomiting Grade 5, subjects",100 mg BIW,0
same,"TEAE Vomiting Overall Frequency, subjects",100 mg BIW,22 (44.0%)
same,"Total Bilirubin (Screening) >1-[…] ULN, subjects",100 mg BIW,3 (6.5%)
same,"Total Bilirubin (Screening) >1.5-3 × ULN, subjects",100 mg BIW,2 (4.3%)
same,"Total Bilirubin (Screening) >3-10 × ULN, subjects",100 mg BIW,0
same,"Total Bilirubin (Screening) >10 × ULN, subjects",100 mg BIW,0
same,"Total Bilirubin (any time during therapy) >1-[…] ULN, subjects",100 mg BIW,5 (10.0%)
same,"Total Bilirubin (any time during therapy) >1.5-3 × ULN, subjects",100 mg BIW,3 (6.0%)
same,"Total Bilirubin (any time during therapy) >3-10 × ULN, subjects",100 mg BIW,1 (2.0%)
same,"Total Bilirubin (any time during therapy) >10 × ULN, subjects",100 mg BIW,0
same,excess of subjects with severe diarrhea as compared to placebo,100 mg BIW,13%
same,incidence of diarrhea,100 mg BIW,52%
same,"TEAE Abdominal pain Grade 2, subjects",100 mg BIW >3 mg/k,0
same,"TEAE Abdominal pain Grade 3, subjects",100 mg BIW >3 mg/k,0
same,"TEAE Abdominal pain Grade 4, subjects",100 mg BIW >3 mg/k,0
same,"TEAE Abdominal pain Grade 5, subjects",100 mg BIW >3 mg/k,0
same,"TEAE Abdominal pain Overall Frequency, subjects",100 mg BIW >3 mg/k,4 (40%)
same,"TEAE Diarrhea Grade 2, subjects",100 mg BIW >3 mg/k,3 (30%)
same,"TEAE Diarrhea Grade 3, subjects",100 mg BIW >3 mg/k,3 (30%)
same,"TEAE Diarrhea Grade 4, subjects",100 mg BIW >3 mg/k,0
same,"TEAE Diarrhea Grade 5, subjects",100 mg BIW >3 mg/k,0
same,"TEAE Diarrhea Overall Frequency, subjects",100 mg BIW >3 mg/k,6 (60%)
same,"TEAE Hypokalaemia Grade 2, subjects",100 mg BIW >3 mg/k,1 (10%)
same,"TEAE Hypokalaemia Grade 3, subjects",100 mg BIW >3 mg/k,2 (20.0%)
same,"TEAE Hypokalaemia Grade 4, subjects",100 mg BIW >3 mg/k,0
same,"TEAE Hypokalaemia Grade 5, subjects",100 mg BIW >3 mg/k,0
same,"TEAE Hypokalaemia, subjects",100 mg BIW >3 mg/k,3 (30%)
same,"TEAE Nausea Grade 2, subjects",100 mg BIW >3 mg/k,3 (30%)
same,"TEAE Nausea Grade 3, subjects",100 mg BIW >3 mg/k,1 (10%)
same,"TEAE Nausea Grade 4, subjects",100 mg BIW >3 mg/k,0
same,"TEAE Nausea Grade 5, subjects",100 mg BIW >3 mg/k,0
same,"TEAE Nausea Overall Frequency, subjects",100 mg BIW >3 mg/k,4 (40%)
same,"TEAE Vomiting Grade 2, subjects",100 mg BIW >3 mg/k,4 (40.0%)
same,"TEAE Vomiting Grade 3, subjects",100 mg BIW >3 mg/k,1 (10.0%)
same,"TEAE Vomiting Grade 4, subjects",100 mg BIW >3 mg/k,0
same,"TEAE Vomiting Grade 5, subjects",100 mg BIW >3 mg/k,0
same,"TEAE Vomiting Overall Frequency, subjects",100 mg BIW >3 mg/k,6 (60%)
same,"TEAE Abdominal pain Grade 2, subjects",100 mg BIW ≦3 mg/kg,1 (2.5%)
same,"TEAE Abdominal pain Grade 3, subjects",100 mg BIW ≦3 mg/kg,1 (2.5%)
same,"TEAE Abdominal pain Grade 4, subjects",100 mg BIW ≦3 mg/kg,0
same,"TEAE Abdominal pain Grade 5, subjects",100 mg BIW ≦3 mg/kg,0
same,"TEAE Abdominal pain Overall Frequency, subjects",100 mg BIW ≦3 mg/kg,9 (22.5%)
same,"TEAE Diarrhea Grade 2, subjects",100 mg BIW ≦3 mg/kg,3 (7.5%)
same,"TEAE Diarrhea Grade 3, subjects",100 mg BIW ≦3 mg/kg,6 (15%)
same,"TEAE Diarrhea Grade 4, subjects",100 mg BIW ≦3 mg/kg,0
same,"TEAE Diarrhea Grade 5, subjects",100 mg BIW ≦3 mg/kg,0
same,"TEAE Diarrhea Overall Frequency, subjects",100 mg BIW ≦3 mg/kg,20 (50%)^
same,"TEAE Hypokalaemia Grade 2, subjects",100 mg BIW ≦3 mg/kg,1 (2.5%)
same,"TEAE Hypokalaemia Grade 3, subjects",100 mg BIW ≦3 mg/kg,0
same,"TEAE Hypokalaemia Grade 4, subjects",100 mg BIW ≦3 mg/kg,0
same,"TEAE Hypokalaemia Grade 5, subjects",100 mg BIW ≦3 mg/kg,0
same,"TEAE Hypokalaemia, subjects",100 mg BIW ≦3 mg/kg,5 (12.5%)
same,"TEAE Nausea Grade 2, subjects",100 mg BIW ≦3 mg/kg,6 (15%)
same,"TEAE Nausea Grade 3, subjects",100 mg BIW ≦3 mg/kg,1 (2.5%)
same,"TEAE Nausea Grade 4, subjects",100 mg BIW ≦3 mg/kg,0
same,"TEAE Nausea Grade 5, subjects",100 mg BIW ≦3 mg/kg,0
same,"TEAE Nausea Overall Frequency, subjects",100 mg BIW ≦3 mg/kg,13 (32.5%)
same,"TEAE Vomiting Grade 2, subjects",100 mg BIW ≦3 mg/kg,4 (10%)
same,"TEAE Vomiting Grade 3, subjects",100 mg BIW ≦3 mg/kg,1 (2.5%)
same,"TEAE Vomiting Grade 4, subjects",100 mg BIW ≦3 mg/kg,0
same,"TEAE Vomiting Grade 5, subjects",100 mg BIW ≦3 mg/kg,0
same,"TEAE Vomiting Overall Frequency, subjects",100 mg BIW ≦3 mg/kg,16 (40%)^
same,Abdominal pain leading to study drug withdrawal,"100 mg BIW, N = 50",1 (2.0%)
same,All AEs leading to withdrawal,"100 mg BIW, N = 50",18 (36.0%)
same,Diarrhoea leading to study drug withdrawal,"100 mg BIW, N = 50",2 (4.0%)
same,Dyspepsia leading to study drug withdrawal,"100 mg BIW, N = 50",0%
same,Nausea leading to study drug withdrawal,"100 mg BIW, N = 50",1 (2.0%)
same,TEAE ALT increased,"100 mg BIW, N = 50",9 (18.0%) n (%)
same,TEAE AST increased,"100 mg BIW, N = 50",5 (10.0%) n (%)
same,TEAE Abdominal pain,"100 mg BIW, N = 50",13 (26.0%) n (%)
same,"TEAE Abdominal pain, Upper","100 mg BIW, N = 50",2 (4.0%) n (%)
same,TEAE Acute GVHD,"100 mg BIW, N = 50",32 (64.0%) n (%)
same,TEAE Acute Myeloid Leukemia recurrent,"100 mg BIW, N = 50",3 (6.0%) n (%)
same,TEAE Acute Renal Failure,"100 mg BIW, N = 50",1 (2.0%) n (%)
same,TEAE Anxiety,"100 mg BIW, N = 50",3 (6.0%) n (%)
same,TEAE Arthralgias,"100 mg BIW, N = 50",3 (6.0%) n (%)
same,TEAE Back Pain,"100 mg BIW, N = 50",4 (8.0%) n (%)
same,TEAE Blood lactate dehydrogenase increased,"100 mg BIW, N = 50",4 (8.0%) n (%)
same,TEAE Creatinine increased,"100 mg BIW, N = 50",7 (14.0%) n (%)
